From patent US10294202B2, “Pyrrolidinones as herbicides” (FMC Corporation, priority 2013, dated 2019)

Key:
Rice, W.S. Ind = test: Test F flood (paddy) test; format: in vivo, Oryza sativa Indica; settings: 21 d, scale 0-100
From the text: Three plastic pots (ca. 16-cm diameter) per rate were partially filled with sterilized Tama silt loam soil comprising a 35:50:15 ratio of sand, silt and clay and 2.6% organic matter. Separate plantings for each of the three pots were as follows. Seeds from the U.S. of monochoria (Monochoria vaginalis), sedge, umbrella (small-flower umbrella sedge, Cyperus difformis), bulrush, […] bulrush, Scirpus juncoides), and […] (purple […] coccinea), were planted into one 16-cm pot for each rate. Seeds from the U.S. of flatsedge, rice (rice flatsedge, Cyperus iria), sprangletop, Brdd. (bearded sprangletop, Leptochloa fascicularis), one stand of 9 or 10 water seeded rice seedlings (Rice, W.S. Jap, Oryza sativa cv. 'Japonica-[…]' or Rice, W.S. Ind, 'Indica'), and two stands of 3 or 4 seedlings of rice, transplanted (transplanted rice, Oryza sativa cv. 'Japonica-[…]') were planted into one 16-cm pot for each rate. Seeds from the U.S. of barnyardgrass (Echinochloa crus-galli), […] (common […], Alisma plantago-aquatica), and watergrass, late (late watergrass, Echinochloa oryzicola) were planted into one 16-cm pot for each rate. Plantings were sequential so that crop and weed species were at the 2.0 to 2.5-leaf stage at time of treatment. Potted plants were grown in a greenhouse with day/night temperature settings of 30/27° C., and supplemental balanced lighting was provided to maintain a 16-h photoperiod. Test pots were maintained in the greenhouse until test completion. At time of treatment, test pots were flooded to 3 cm above the soil surface, treated by application of test compounds directly to the paddy water, and then maintained at that water depth for the duration of the test. Effects of treatments on rice and weeds were visually evaluated by comparison to untreated controls after 21 d. Plant response ratings, summarized in Table F, are based on a scale of 0 to 100 where 0 is no effect and 100 is complete control. A dash (-) response means no test result.

velvetleaf = test: Test E preemergence herbicide test; format: in vivo, Abutilon theophrasti; design: key: 0 = no effect, 100 = complete control
From the text: (§1) Seeds of plant species selected from corn (Zea mays), soybean (Glycine max), velvetleaf (Abutilon theophrasti), lambsquarters (Chenopodium album), wild poinsettia (Euphorbia heterophylla), pigweed, palmer (palmer pigweed, Amaranthus palmeri), waterhemp (common waterhemp, Amaranthus rudis), surinam grass (Brachiaria decumbens), crabgrass, large (large crabgrass, Digitaria sanguinalis), crabgrass, Brazil (Brazilian crabgrass, Digitaria horizontalis), panicum, fall (fall panicum, Panicum dichotomiflorum), foxtail, giant (giant foxtail, Setaria faberii), foxtail, green (green foxtail, Setaria viridis), goosegrass (Eleusine indica), johnsongrass (Sorghum halepense), ragweed (common ragweed, Ambrosia elatior), barnyardgrass (Echinochloa crus-galli), sandbur (southern sandbur, Cenchrus echinatus), arrowleaf […] rhombifolia), ryegrass, Italian (Italian ryegrass, Lolium multiflorum), dayflower, VA (Virginia dayflower, Commelina virginica), field bindweed (Convolvulus arvensis), morningglory (Ipomoea coccinea), nightshade (eastern black nightshade, Solanum ptycanthum), kochia (Kochia scoparia), nutsedge, yellow (yellow nutsedge, Cyperus esculentus), cocklebur (common cocklebur, Xanthium strumarium), smartweed (ladysthumb smartweed, Polygonum Persicaria) and beggarticks (hairy beggarticks, Bidens pilosa), were planted into a silt loam soil and treated preemergence with test chemicals formulated in a non-phytotoxic solvent mixture which included a surfactant. Treated plants and controls were maintained in a greenhouse for 21 days, after which time all species were compared to controls and visually evaluated. Plant response ratings, summarized in Table E, are based on a scale of 0 to 100 where 0 is no effect and 100 is complete control. A dash (-) response means no test result.

foxtail, giant = test: Test E preemergence herbicide test; format: in vivo, Setaria faberii; design: key: 0 = no effect, 100 = complete control
From the text: as §1

cocklebur = test: Test E preemergence herbicide test; format: in vivo, Xanthium strumarium; design: key: 0 = no effect, 100 = complete control
From the text: as §1

barley (winter barley) = test: Test C postemergence herbicide test; format: in vivo, Hordeum vulgare
From the text: (§2) At the same time, plants selected from these crop and weed species and also barley (winter barley, Hordeum vulgare), […]), chickweed (common chickweed, Stellaria media), deadnettle (henbit deadnettle, Lamium amplexicaule), and canarygrass (littleseed canarygrass, Phalaris minor) were planted in pots containing Redi-Earth® planting medium (Scotts Company, 14111 Scottslawn Road, Marysville, Ohio 43041) comprising spaghnum peat moss, vermiculite, wetting agent and starter nutrients and treated with postemergence applications of test chemicals formulated in the same manner. Plants ranged in height from 2 to 18 cm (1- to 4-leaf stage) for postemergence treatments. Treated plants and controls were maintained in a greenhouse for 13 to 15 days, after which time all species were compared to controls and visually evaluated. Plant response ratings, summarized in Table C, are based on a scale of 0 to 100 where 0 is no effect and 100 is complete control. A dash (-) response means no test result.

windgrass = test: Test C postemergence herbicide test; format: in vivo, Apera spica-venti
From the text: as §2

canarygrass = test: Test C postemergence herbicide test; format: in vivo, Phalaris minor
From the text: as §2

[1] = 31 g ai/ha, scale 0 (no effect) to 100 (complete control)
[2] = 62 g ai/ha, scale 0 to 100 (0 no effect, 100 complete control)
[3] = 125 g ai/ha, scale 0 to 100 (0 no effect, 100 complete control)
[4] = 250 g ai/ha, scale 0 to 100 (0 no effect, 100 complete control)
[5] = 16 g ai/ha, scale 0 to 100 (0 no effect, 100 complete control)

Compound | Plant response rating, Rice, W.S. Ind (Rice, W.S. Ind; 125 g ai/ha) | Plant response rating, Rice, W.S. Ind (Rice, W.S. Ind; 250 g ai/ha) | Plant response rating, Rice, W.S. Ind (Rice, W.S. Ind; 500 g ai/ha) | Plant response rating, Velvetleaf (velvetleaf; 31 g ai/ha) | Plant response rating, Velvetleaf (velvetleaf; 62 g ai/ha) | Plant response rating, Velvetleaf (velvetleaf; 125 g ai/ha) | Plant response rating, Velvetleaf (velvetleaf; 250 g ai/ha) | Plant response rating, Foxtail, Giant (foxtail, giant; 31 g ai/ha) | Plant response rating, Foxtail, Giant (foxtail, giant; 62 g ai/ha) | Plant response rating, Foxtail, Giant (foxtail, giant; 125 g ai/ha) | Plant response rating, Foxtail, Giant (foxtail, giant; 250 g ai/ha) | Plant response rating, Barley (barley (winter barley); [1]) | Plant response rating, Barley (barley (winter barley); [2]) | Plant response rating, Barley (barley (winter barley); [3]) | Plant response rating, Windgrass (windgrass; [1]) | Plant response rating, Windgrass (windgrass; [2]) | Plant response rating, Windgrass (windgrass; [3]) | Plant response rating, Canarygrass (canarygrass; [1]) | Plant response rating, Canarygrass (canarygrass; [2]) | Plant response rating, Canarygrass (canarygrass; [3]) | further results
O=C1NCC(c2cccc(C(F)F)c2)C1C(=O)Nc1ccccc1F (racemic) [Compound 210] | 0 | 0 | 0 |  |  |  |  |  |  |  |  |  |  |  |  |  |  |  |  |  | 
O=C1NCC(c2ccc(C(F)(F)F)cc2)C1C(=O)Nc1cccc(F)c1F (centres unmarked) [Compound 80, N-(2,3-difluorophenyl)-2-oxo-4-[4-(trifluoromethyl)phenyl]-3-pyrrolidinecarboxamide] |  |  |  | 0 | 0 | 0 | 0 | 65 | 75 | 80 | 90 |  |  |  |  |  |  |  |  |  | Plant response rating, Velvetleaf (velvetleaf; 16 g ai/ha): 0; Plant response rating, Foxtail, Giant (foxtail, giant; 16 g ai/ha): 0; Plant response rating, Cocklebur (cocklebur; 16 g ai/ha): 0; Plant response rating, Cocklebur (cocklebur; 62 g ai/ha): 0; Plant response rating, Cocklebur (cocklebur; 125 g ai/ha): 0; Plant response rating, Cocklebur (cocklebur; 250 g ai/ha): 0
O=C1NCC(c2ccc(F)c(F)c2)C1C(=O)Nc1cccc(F)c1F (racemic) [Compound 101] | 20 | 35 | 60 |  |  |  |  |  |  |  |  |  |  |  |  |  |  |  |  |  | Plant response rating, Rice, W.S. Ind (Rice, W.S. Ind; 64 g ai/ha): 0
O=C1NC[C@H](c2cccc(C(F)(F)F)c2)[C@H]1C(=O)Nc1ccccc1F [Compound 204, (3R,4S)—N-(2-fluorophenyl)-2-oxo-4-[3-(trifluoromethyl)phenyl]-3-pyrrolidinecarboxamide] | 0 | 10 | 20 | 0 | 0 | 0 | 0 | 50 | 95 | 95 | 98 |  |  |  |  |  |  |  |  |  | 
O=C1NCC(c2ccc(OC(F)F)cc2)C1C(=O)Nc1cccc(F)c1F (racemic) [Compound 350] |  |  |  | 0 | 0 | 0 | 0 | 0 | 20 | 50 | 80 |  |  |  |  |  |  |  |  |  | 
O=C1NCC(c2ccc(Cl)c(Cl)c2)C1C(=O)Nc1ccccc1F (racemic) [Compound 14] |  |  |  | 0 | 0 | 0 | 0 | 0 | 0 | 10 | 90 |  |  |  |  |  |  |  |  |  | Plant response rating, Velvetleaf (velvetleaf; 16 g ai/ha): 0; Plant response rating, Foxtail, Giant (foxtail, giant; 16 g ai/ha): 0; Plant response rating, Cocklebur (cocklebur; 62 g ai/ha): 0; Plant response rating, Cocklebur (cocklebur; 125 g ai/ha): 0; Plant response rating, Cocklebur (cocklebur; 250 g ai/ha): 0
O=C1NCC(c2ccc(C(F)(F)F)cc2)C1C(=O)Nc1cccc(F)c1F (racemic) [Compound 202] |  |  |  | 0 | 0 | 0 | 40 | 35 | 50 | 95 | 98 |  |  |  |  |  |  |  |  |  | 
O=C1NCC(c2cc(F)c(F)cc2F)C1C(=O)Nc1cccc(F)c1F (centres unmarked) [Compound 50] |  |  |  |  |  |  |  |  |  |  |  | 0 | 0 | 0 | 0 | 0 | 0 | 0 | 0 | 0 | Plant response rating, Barley (barley (winter barley); [4]): 0; Plant response rating, Windgrass (windgrass; [4]): 0; Plant response rating, Canarygrass (canarygrass; [4]): 0
O=C1NCC(c2ccc(Cl)c(F)c2)C1C(=O)Nc1cccc(F)c1F (centres unmarked) [Compound 52] |  |  |  |  |  |  |  |  |  |  |  | 0 | 0 | 0 | 0 | 0 | 20 | 0 | 0 | 0 | Plant response rating, Barley (barley (winter barley); [4]): 15; Plant response rating, Windgrass (windgrass; [4]): 20; Plant response rating, Canarygrass (canarygrass; [4]): 0
O=C1NCC(c2cc(F)c(F)c(F)c2)C1C(=O)Nc1cccc(F)c1F (centres unmarked) [Compound 48] |  |  |  |  |  |  |  |  |  |  |  | 0 | 0 | 0 | 0 | 0 | 0 | 0 | 0 | 0 | Plant response rating, Barley (barley (winter barley); [5]): 0; Plant response rating, Windgrass (windgrass; [5]): 0; Plant response rating, Canarygrass (canarygrass; [5]): 0
O=C1NC[C@H](c2cccc(C(F)(F)F)c2)[C@H]1C(=O)Nc1cccc(F)c1F [Compound 206] | 25 | 45 | 65 | 0 | 35 | 30 | 50 | 90 | 98 | 98 | 98 |  |  |  |  |  |  |  |  |  | Plant response rating, Cocklebur (cocklebur; 31 g ai/ha): 0; Plant response rating, Cocklebur (cocklebur; 62 g ai/ha): 0; Plant response rating, Cocklebur (cocklebur; 125 g ai/ha): 0; Plant response rating, Cocklebur (cocklebur; 250 g ai/ha): 0; Plant response rating, Rice, W.S. Ind (Rice, W.S. Ind; 64 g ai/ha): 15
O=C1NCC(c2ccc(F)c(Cl)c2)C1C(=O)Nc1ccccc1F (centres unmarked) [Compound 60] |  |  |  |  |  |  |  |  |  |  |  | 0 | 0 | 20 | 0 | 0 | 0 | 0 | 0 | 0 | 
